# Patent publication US10961189B2, “Spiro-lactam NMDA receptor modulators and uses thereof” (Aptinyx Inc., priority 2016, dated 2021)
# Where two headings read alike, the source gives them in different places.
# Assays:
# [1] = oral pharmacokinetics (plasma, brain, CSF); type: in vivo, Sprague Dawley rats; conditions: rat, per os 10 mg/kg; for AUC(0-t) / bioavailability / Tmax / Cmax: Sprague-Dawley, plasma, po; for Tmax: normal saline (* in 5% NMP, 5% Solutol HS, 90% normal saline), read-out: Tmax; for Cmax: read-out: Cmax
# Method: In another experiment, Sprague Dawley rats were dosed per os using a normal saline formulation containing 10 mg/kg of the compounds identified in the table below (except for the compounds marked with an asterisk (“*”) that were delivered in 5% NMP, 5% Solutol® HS and 90% normal saline formulation). Plasma, brain, and CSF samples were analyzed at various time points over a 24 hour period.
# rats = assay: positive emotional learning (PEL) test, 50-kHz ultrasonic vocalizations; type: in vivo, rat; conditions: PO, one hour after administration
# Method: Experiments were conducted as described in Burgdorf et al., “The effect of selective breeding for differential rates of 50-kHz ultrasonic vocalizations on emotional behavior in rats,” Devel. Psychobiol., 51:34-46 (2009). Rat 50-kHz ultrasonic vocalization (hedonic USVs) is a validated model for the study of positive affective state and is best elicited by rough-and-tumble play.
# The PEL assay measures the acquisition of positive (hedonic) 50-kHz ultrasonic vocalizations (USVs) to a social stimulus, heterospecific rough and tumble play stimulation. Heterospecific rough-and-tumble play stimulation was administered by the experimenter's right hand. One hour after administration of test compound or vehicle negative control (0.5% sodium carboxymethyl cellulose in […] sterile saline), animals received 3 min of heterospecific rough-and-tumble play that consisted of alternating 15 sec blocks of heterospecific play and 15 sec of no-stimulation. High frequency ultrasonic vocalizations (USVs) were recorded and analyzed by sonogram with Avasoft SASlab Pro (Germany) as previously described by Burgdorf et al., “Positive emotional learning is regulated in the medial prefrontal cortex by GluN2B-containing NMDA receptors,” Neuroscience, 192:515-523 (2011). Frequency modulated 50-kHz USVs that occurred during each of the no-stimulation periods were quantified to measure PEL. Animals were not habituated to play stimulation before testing. Positive emotional learning was measured during the conditioned stimulus (CS) trials preceding the tickle unconditioned stimulus (UCS) trials. Animals received 15 second trials consisting of 6 CS and 6 UCS trials each (3 min total).
# The table below summarizes the findings. As each experiment includes its own vehicle group, an example (typical) vehicle score is shown. Max effect (mean number of 50 kHz USVs per 15 seconds) is reported as ^: <6.0; *: 6-10.9; **: 11-16.9; ***: 17-22.
bioavailability [1] [%],Tmax [1] [min],AUC(0-t) [1] [ng·h/mL],Cmax [1] [ng/mL],Structure (SMILES),AUC(0-t) ([1]; 10 mg/kg) [ng·h/mL],bioavailability ([1]; 10 mg/kg) [%],Tmax ([1]; 10 mg/kg) [min],Cmax ([1]; 10 mg/kg) [ng/mL],CSF Cmax [1] [ng/mL],Brain Cmax [1] [ng/mL],Max Effect (mean number of 50 kHz USVs per 15 seconds) (rats; dose .001-1 mg/kg),Max Effect (mean number of 50 kHz USVs per 15 seconds) (rats; dose .1 mg/kg)
–,–,–,–,"O=C1NCC12CCC(O)CC2 (centres unmarked) [AL, 7-hydroxy-2-azaspiro[3.5]nonan-1-one]",19300,97,60,9480,7532,3672,** (**: 11-16.9),–
–,–,–,–,"CC1CCC2(CC1)CNC2=O (racemic) [Compound AD, 7-methyl-2-azaspiro[3.5]nonan-1-one]",4580,67,25.2,2030,1009.2,1832.2,*** (***: 17-22),–
–,–,–,–,"C[C@@H](O)[C@H](NC1CCC2(CC1)CNC2=O)C(N)=O (single isomer, unassigned) [AP]",2050,15,120,625,80.46,0,–,** (**: 11-16.9)
–,–,–,–,"O=C1NCC12CCC(OCc1ccccc1)CC2 (single isomer, unassigned) [AI, 7-(benzyloxy)-2-azaspiro[3.5]nonan-1-one]",5900,94,30,3970,269.17,1087.9,** (**: 11-16.9),–
41,15,1330,1930,COc1ccc(CN2CC3(CCC(O)CC3)C2=O)cc1 (centres unmarked) [AG],–,–,–,–,217.3,307.49,** (**: 11-16.9),–
